In ChEMBL document CHEMBL4414598, “Trifluorinated Pyrimidine-Based A2B Antagonists: Optimization and Evidence of Stereospecific Recognition” (J Med Chem, 2019) one finds inhibition and Ki data, which are given here for 34 molecules.

The target in test [1] is T1, Adenosine receptor A3 (Homo sapiens) (UniProt P0DMS8).
T1 sequence (whole entry): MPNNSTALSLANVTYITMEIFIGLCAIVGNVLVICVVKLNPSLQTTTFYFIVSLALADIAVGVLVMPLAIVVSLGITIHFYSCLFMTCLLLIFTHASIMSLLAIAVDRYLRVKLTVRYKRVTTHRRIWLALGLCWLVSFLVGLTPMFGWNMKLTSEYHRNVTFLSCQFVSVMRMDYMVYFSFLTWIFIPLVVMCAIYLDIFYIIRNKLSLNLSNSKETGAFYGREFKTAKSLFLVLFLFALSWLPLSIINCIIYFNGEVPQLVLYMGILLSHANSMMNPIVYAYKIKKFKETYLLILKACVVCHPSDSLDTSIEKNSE
In words: Displacement of [3H]NECA from human A3 receptor expressed in human HeLa cell membranes at 1 uM incubated for 180 mins by radioligand binding competition assay relative to control.

The target in the next test is T2, Adenosine receptor A2b (Homo sapiens, UniProt P29275).
T2 sequence (P29275 whole entry): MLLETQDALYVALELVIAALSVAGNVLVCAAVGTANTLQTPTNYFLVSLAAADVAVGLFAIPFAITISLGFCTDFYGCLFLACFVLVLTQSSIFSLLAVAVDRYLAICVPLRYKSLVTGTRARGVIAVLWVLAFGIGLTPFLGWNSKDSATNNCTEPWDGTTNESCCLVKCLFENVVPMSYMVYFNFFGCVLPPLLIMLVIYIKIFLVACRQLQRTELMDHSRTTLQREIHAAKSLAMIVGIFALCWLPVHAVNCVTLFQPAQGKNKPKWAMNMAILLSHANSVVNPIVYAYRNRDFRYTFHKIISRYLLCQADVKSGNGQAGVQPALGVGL
The experiment in a line: Displacement of [3H]DPCPX from human recombinant A2B receptor expressed in human HEK293 cell membranes incubated for 30 mins by radioligand binding competition assay.

Test [2] concerns the target T3, Adenosine receptor A1 (Homo sapiens) (UniProt P30542).
T3 sequence (whole entry): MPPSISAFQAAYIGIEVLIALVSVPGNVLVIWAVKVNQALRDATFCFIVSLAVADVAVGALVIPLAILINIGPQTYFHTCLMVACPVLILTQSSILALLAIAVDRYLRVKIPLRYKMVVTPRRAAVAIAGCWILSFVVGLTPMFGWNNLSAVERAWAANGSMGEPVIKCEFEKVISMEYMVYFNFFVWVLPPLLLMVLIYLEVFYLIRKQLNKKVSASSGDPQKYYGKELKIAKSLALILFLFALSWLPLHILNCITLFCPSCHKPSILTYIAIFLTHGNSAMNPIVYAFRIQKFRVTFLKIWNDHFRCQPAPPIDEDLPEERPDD
In words: Displacement of [3H]DPCPX from human recombinant A1 receptor expressed in CHOA1 cell membranes at 1 uM incubated for 60 mins by radioligand binding competition assay relative to control.

For the next test, the target named is Adenosine receptor A2a (Homo sapiens, UniProt P29274). The experiment in a line: Displacement of [3H]ZM241385 from human recombinant A2A receptor expressed in human HeLa cell membranes at 1 uM incubated for 30 mins by radioligand binding competition assay relative to control.
Adenosine receptor A2a, sequence (P29274 whole entry): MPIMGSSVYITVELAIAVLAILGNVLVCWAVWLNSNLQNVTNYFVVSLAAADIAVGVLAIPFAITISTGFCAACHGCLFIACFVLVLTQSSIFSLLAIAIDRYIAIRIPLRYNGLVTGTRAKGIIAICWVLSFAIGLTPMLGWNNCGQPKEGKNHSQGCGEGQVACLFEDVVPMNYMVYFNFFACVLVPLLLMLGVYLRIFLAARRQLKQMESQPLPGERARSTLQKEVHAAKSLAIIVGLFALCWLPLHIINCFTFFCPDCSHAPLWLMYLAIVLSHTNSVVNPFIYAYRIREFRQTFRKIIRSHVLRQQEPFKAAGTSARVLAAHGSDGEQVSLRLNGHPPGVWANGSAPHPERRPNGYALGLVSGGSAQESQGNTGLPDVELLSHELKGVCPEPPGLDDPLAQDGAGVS
Test [3] has as its target T4, Adenosine receptor A2b (Homo sapiens) (UniProt P29275).
T4 sequence (whole entry): T2 sequence (P29275 whole entry)
In words: Displacement of [3H]DPCPX from human recombinant A2B receptor expressed in human HEK293 cell membranes at 1 uM incubated for 30 mins by radioligand binding competition assay relative to control.

Turning to `CC1=C(C(=O)OC(C)C(F)(F)F)C(c2ccco2)n2c(nc3ccccc32)N1` (racemic), the inhibition in test [1] is 18%; in test [2], 3%; at Adenosine receptor A2a, 4%. For the same molecule, on Adenosine receptor A2b, the Ki turned out to be 29.6 nM.
For the molecule `CC1=C(C(=O)OCC(F)(F)F)C(c2ccoc2)NC(=O)N1` (racemic), the inhibition worked out at 1% in test [1], 13% in test [2] and 9% on Adenosine receptor A2a. For the same molecule, the Ki at Adenosine receptor A2b came to 588 nM.
Regarding `CC1=C(C(=O)OC(C)C(F)(F)F)C(c2cccs2)NC(=O)N1` (stereo in doubt; 14k-D2), the inhibition in test [1] came out at 3%; in test [3] it was 1%; in test [2], 16%; on Adenosine receptor A2a it was 1%.
`CCOC(=O)C1=C(C(F)(F)F)NC(=O)NC1c1ccoc1` (racemic): the inhibition in test [1] worked out at 1%; in test [2] it was 37%; at Adenosine receptor A2a, 55%. In addition, the Ki at Adenosine receptor A2b was 521 nM.
Take `CC1=C(C(=O)OC(C(F)(F)F)C(F)(F)F)C(c2ccsc2)n2c(nc3ccccc32)N1` (racemic): the inhibition in test [1] amounted to 1%; in test [3] it was 1%; in test [2] it was 3%; on Adenosine receptor A2a it was 15%.
In the case of `CCOC(=O)C1=C(C(F)(F)F)Nc2nc3ccccc3n2C1c1ccco1` (racemic), the inhibition worked out at 20% in test [1], 11% in test [2] and 4% at Adenosine receptor A2a. Besides, the Ki at Adenosine receptor A2b came to 731 nM.
Turning to `CC1=C(C(=O)OCC(F)(F)F)C(c2ccsc2)NC(=O)N1` (racemic), the inhibition in test [1] was 1%; in test [3] it was 24%; in test [2], 2%; at Adenosine receptor A2a, 1%.
Consider `CC1=C(C(=O)OCC(F)(F)F)C(c2ccsc2)n2c(nc3ccccc32)N1` (racemic), for which the inhibition in test [1] was found to be 2%; in test [3] it was 30%; in test [2], 7%; on Adenosine receptor A2a, 17%.
As to `CC1=C(C(=O)O[C@@H](C)C(F)(F)F)C(c2ccco2)n2c(nc3ccccc32)N1` (mixture of isomers), the inhibition in test [1] is 7%; in test [2], 26%; at Adenosine receptor A2a, 1%. Also, the Ki at Adenosine receptor A2b was 15.1 nM.
In the case of `CC(C)OC(=O)C1=C(C(F)(F)F)NC(=O)NC1c1ccoc1` (racemic), the inhibition came out at 1% in test [1], 37% in test [3], 27% in test [2] and 21% on Adenosine receptor A2a.
In the same order, the values of `CC(C)OC(=O)C1=C(C(F)(F)F)Nc2nc3ccccc3n2C1c1ccsc1` (racemic) are 2%, 48%, 10% and 3%.
Taken in the same sequence, the figures for `CC1=C(C(=O)OC(C)C(F)(F)F)C(c2cccs2)n2c(nc3ccccc32)N1` (racemic) were 4%, 27%, 34% and 2%.
With `CC1=C(C(=O)OC(C)C(F)(F)F)C(c2ccco2)NC(=O)N1` (stereo in doubt; 14i-D1), on Adenosine receptor A2b, the Ki stood at 61.5 nM.
As for `CC1=C(C(=O)OC(C)C(F)(F)F)C(c2ccco2)NC(=O)N1` (stereo in doubt; 14i-D2), the Ki at Adenosine receptor A2b was found to be 303 nM.
With `CC1=C(C(=O)OCC(F)(F)F)C(c2cccs2)n2c(nc3ccccc32)N1` (racemic), the inhibition in test [1] stood at 2%; in test [3], 6%; in test [2] it was 1%; on Adenosine receptor A2a, 7%.
With `CCOC(=O)C1=C(C(F)(F)F)Nc2nc3ccccc3n2C1c1ccoc1` (racemic), the inhibition in test [1] amounted to 6%; in test [2], 9%; at Adenosine receptor A2a, 18%. In addition, at Adenosine receptor A2b, the Ki worked out at 37.4 nM.
Turning to `CC1=C(C(=O)O[C@H](C)C(F)(F)F)[C@H](c2ccco2)n2c(nc3ccccc32)N1`, the inhibition in test [1] came out at 1%; in test [3], 18%; in test [2], 2%; at Adenosine receptor A2a it was 2%.
For the molecule `CC1=C(C(=O)OC(C(F)(F)F)C(F)(F)F)C(c2cccs2)NC(=O)N1` (racemic), the inhibition in test [1] is 1%; in test [3] it was 1%; in test [2] it was 9%; on Adenosine receptor A2a, 1%.
`CC1=C(C(=O)OC(C)C(F)(F)F)C(c2ccsc2)n2c(nc3ccccc32)N1` (racemic): the inhibition in test [1] was 2%; in test [3], 47%; in test [2], 2%; on Adenosine receptor A2a it was 24%.
Take `CC1=C(C(=O)OC(C(F)(F)F)C(F)(F)F)C(c2ccco2)n2c(nc3ccccc32)N1` (racemic): the inhibition in test [1] amounted to 24%; in test [3], 16%; in test [2], 16%; at Adenosine receptor A2a, 2%.
With `CC1=C(C(=O)OCC(F)(F)F)C(c2ccco2)n2c(nc3ccccc32)N1` (racemic), the inhibition in test [1] is 23%; in test [2], 16%; at Adenosine receptor A2a, 7%. The Ki at Adenosine receptor A2b worked out at 27 nM.
`CCOC(=O)C1=C(C(F)(F)F)NC(=O)NC1c1cccs1` (racemic): the inhibition in test [1] was determined as 1%; in test [3] it was 16%; in test [2], 28%; on Adenosine receptor A2a, 20%.
Taken in the same sequence, the figures for `CC1=C(C(=O)OC(C(F)(F)F)C(F)(F)F)C(c2ccsc2)NC(=O)N1` (racemic) were 8%, 1%, 17% and 1%.
Take `CC(C)OC(=O)C1=C(C(F)(F)F)Nc2nc3ccccc3n2C1c1ccco1` (racemic): the inhibition worked out at 5% in test [1], 39% in test [3], 3% in test [2] and 10% at Adenosine receptor A2a.
On to `CC1=C(C(=O)OCC(F)(F)F)C(c2cccs2)NC(=O)N1` (racemic), for which the inhibition stood at 1% in test [1], 1% in test [3], 3% in test [2] and 3% on Adenosine receptor A2a.
Take `CC(C)OC(=O)C1=C(C(F)(F)F)NC(=O)NC1c1ccsc1` (racemic): the inhibition in test [1] is 3%; in test [2], 23%; at Adenosine receptor A2a it was 9%. The Ki on Adenosine receptor A2b is 651 nM.
`CC1=C(C(=O)OC(C)C(F)(F)F)C(c2ccsc2)NC(=O)N1` (stereo in doubt; 14l-D1): on Adenosine receptor A2b, the Ki is 643 nM.
Same read-out and setting: to `CC1=C(C(=O)OC(C)C(F)(F)F)C(c2ccoc2)NC(=O)N1` (stereo in doubt; 14j-D1) belongs 234 nM.
Consider `CC(C)OC(=O)C1=C(C(F)(F)F)Nc2nc3ccccc3n2C1c1cccs1` (racemic), for which the inhibition was 1% in test [1], 17% in test [3], 4% in test [2] and 1% at Adenosine receptor A2a.
In the case of `CC1=C(C(=O)O[C@@H](C)C(F)(F)F)[C@H](c2ccco2)n2c(nc3ccccc32)N1`, the inhibition was determined as 9% in test [1], 35% in test [3], 7% in test [2] and 19% on Adenosine receptor A2a.
For `CC1=C(C(=O)OC(C)C(F)(F)F)C(c2ccoc2)NC(=O)N1` (stereo in doubt; 14j-D2), the inhibition was 5% in test [1], 23% in test [3], 1% in test [2] and 1% at Adenosine receptor A2a.
Take `CC1=C(C(=O)OC(C(F)(F)F)C(F)(F)F)C(c2cccs2)n2c(nc3ccccc32)N1` (racemic): the inhibition in test [1] amounted to 19%; in test [3], 7%; in test [2] it was 11%; on Adenosine receptor A2a, 10%.
Taken in the same sequence, the figures for `CC1=C(C(=O)OC(C(F)(F)F)C(F)(F)F)C(c2ccco2)NC(=O)N1` (racemic) were 2%, 1%, 6% and 1%.
In the same order, the values of `CC(C)OC(=O)C1=C(C(F)(F)F)NC(=O)NC1c1cccs1` (racemic) are 7%, 19%, 8% and 13%.
